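Interpolation was linear, between the two tested concentrations surrounding the appropriate level; five concentrations were tested over 48 hours in 96-well plates. GI50 is the concentration that inhibits growth by half. The concentration for full growth arrest is given as TGI.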
Legend:
Test in all cases: NCI-60 cell line screen, 48 h
A549 NSCLC = test system: A549 NSCLC
EKVX NSCLC = test system: EKVX NSCLC
HCC-2998 colon = test system: HCC-2998 colon
M14 melanoma = test system: M14 melanoma
MOLT-4 leukemia = test system: MOLT-4 leukemia
SF-268 CNS = test system: SF-268 CNS
SK-MEL-2 melanoma = test system: SK-MEL-2 melanoma
SN12C renal = test system: SN12C renal
TK-10 renal = test system: TK-10 renal
HOP-92 NSCLC = test system: HOP-92 NSCLC

Structure (SMILES)	TGI (A549 NSCLC) [µM]	TGI (EKVX NSCLC) [µM]	TGI (HCC-2998 colon) [µM]	TGI (M14 melanoma) [µM]	TGI (MOLT-4 leukemia) [µM]	TGI (SF-268 CNS) [µM]	TGI (SK-MEL-2 melanoma) [µM]	TGI (SN12C renal) [µM]	TGI (TK-10 renal) [µM]	GI50 (A549 NSCLC) [µM]	GI50 (HCC-2998 colon) [µM]	GI50 (HOP-92 NSCLC) [µM]	TGI (HOP-92 NSCLC) [µM]	GI50 (M14 melanoma) [µM]	GI50 (MOLT-4 leukemia) [µM]	GI50 (SF-268 CNS) [µM]	GI50 (SK-MEL-2 melanoma) [µM]	GI50 (SN12C renal) [µM]	GI50 (TK-10 renal) [µM]	GI50 (EKVX NSCLC) [µM]
CCCCNC(=S)OCCC(C)CCCC(C)C (configuration not stated)	> 100	> 100	> 100	> 100	> 100	> 100	> 100	> 100	> 100											
NC(Cc1c[nH]c2ccc([N+](=O)[O-])cc12)C(=O)O (configuration not stated)	> 100	> 100		> 100	> 100	> 100	> 100	> 100	> 100											
Cn1cc(C2=C(c3cn(CCCN)c4ccccc34)C(=O)NC2=O)c2ccccc21	17.4		16.2	8.6	18.5	12.8	7.07	18.6	12.8	5.65	5.84	8.26	17.6	4.38	6.06	5.33	3.04	4.67	4.86	
COC1C=COC2(C)Oc3c(C)c(O)c4c(O)c(c(C5SCCS5)c(O)c4c3C2=O)NC(=O)/C(C)=C\C=CC(C)C(O)C(C)C(O)C(C)C(OC(C)=O)C1C (configuration not stated)	22.4			27.5	4.43	32	24.6	10.1	14.2				26.1							
O=C(c1ccc([N+](=O)[O-])cc1)C(Br)C(Br)c1ccnc2ccccc12 (configuration not stated)	30.5	34.3		9.81	14.7	45.2	26.4	14.4	12.6				28.8							
Oc1[nH]c2ccccc2c1/C=c1/ccc2c(c1)N=C(c1ccc(C(F)(F)F)cc1)N=2	17.8	16.9	16.2	9.04	3.94	11.9	15.3	20.6	22.2	4.81	3.77			2.05	1.67	3.46	5.08	6.91	10.4	4.34
COc1ccccc1/C=C\C(=O)C1COCN1 (configuration not stated)	48.8	42.6		> 100	> 100	64.4	56.7	35.1	50.8											
COc1cc([N+](=O)[O-])c(S(=O)(=O)O)cc1-n1nc(C(=O)Nc2ccccc2)n[n+]1-c1cc(S(=O)(=O)[O-])c([N+](=O)[O-])cc1OC	> 100	> 100		> 100	> 100	> 100	> 100	> 100	> 100				> 100							
O=C(N=c1nc(NC(=O)c2ccccc2)ss1)c1ccccc1	49.7	> 100	> 100	76.2	> 100	> 100	> 100	66.6	> 100											
Cc1nc2sc3c(N)ncnc3c2c(C)c1C	> 25		> 25	> 25	> 25	> 25	> 25	> 25	> 25	> 25	> 25	> 25	> 25	> 25	> 25	> 25	> 25	> 25	> 25	
CCCc1nc(Cl)c(Cl)c(Cl)n1	> 100	43.7		> 76.1	46.9	33.4		> 31.6	> 100				> 61.7							
O=C(Nc1cc(Cl)ccc1O)c1cccc(Nc2ccnc(C(F)(F)F)c2)c1	66	10.7	17.1	18.3	4.73	22.8		25.5	19.8	2.94	5.01	2.27	10.9	3.85	1.54	7.35		3.36	4.51	2.43
Cn1c(=O)c(Oc2ccc(F)cc2F)cc2cnc(N[C@@H]3CCOC3)nc21	> 25		> 25	> 25	> 25	> 25	> 25	> 25	> 25	> 25	> 25	8.69	> 25	> 25	> 25	> 25	> 25	> 25	> 25	
COc1cc2ncnc(Nc3ccc(Oc4ccnc(C)c4)c(C)c3)c2cc1NC(=O)CC1CCSS1 (configuration not stated)		> 50			0.435	2.17	1.91	> 50	1.84			3.75	23.1		0.134	0.94	0.904	1.5	0.896	1.36
CC(C)COC1Sc2ccccc2S1	46.6	38.1	45.3	52.4	> 100	66.3		36.2	43				28.1							
O=C1Nc2ccccc2/C1=C\c1nc(-c2ccccc2F)n2ccccc12	10.3	28.3	> 100	17.9	> 100	18.7	19.6	17	14.2	3.46	55.2			5.65	28.2	4.65	6.81	4.32	4.05	10.6
CCC(=O)N1C/C(=C/c2ccc(Br)cc2)C(=O)/C(=C/c2ccc(Br)cc2)C1	10.8		2.09	2.7	5.69	3.06	4	1.58	1.28	0.745	0.802	1.69	4.13	0.885	1.06	0.902	1.93	0.424	0.357	

— PubChem BioAssay (NCI)
